“And” between values parts separate entries of the source, which are not always exact repeats. Identical values can stand only once. Like-named read-outs stand apart in the source and are kept apart here.
System: C. elegans
[1] = Table S2, C. elegans SS assay, 110 μM, 0 h, averages of 4 data points
[2] = Table S2, C. elegans SS assay, 110 μM, 24 h, averages of 4 data points

Compound | Percentage of motility inhibition 0 h [1] | Percentage of motility inhibition 24 h [2] [%] | Percentage of motility inhibition 0 h (110 µM) [%] | Percentage of motility inhibition 24 h (110 µM) [%]
COc1ccc2c3c1O[C@H]1C[C@@H](O)C=C[C@@]31CCNC2 [N‐Desmethyl Galanthamine] | 0% | 0 |  | 
CC(C)CN(C[C@@H](O)[C@H](Cc1ccccc1)NC(=O)O[C@H]1CO[C@H]2OCC[C@H]21)S(=O)(=O)c1ccc(N)cc1.CCO [Darunavir (Ethanolate)] | 14% | 10 |  | 
CC(=O)O[C@@H]1C[C@]23C[C@@](C)(O)[C@H](CC[C@H]2[C@@](C)(O)[C@@H]2[C@@H]4O[C@@H]4C(C)(C)[C@@]12O)[C@H]3O [Rhodojaponin II] | 4% | 8 |  | 
CC1(C)S[C@@H]2[C@H](NC(=O)[C@H](NC(=O)N3CCN(S(C)(=O)=O)C3=O)c3ccccc3)C(=O)N2[C@H]1C(=O)[O-].[Na+] [Mezlocillin (sodium)] | 0% | 4 |  | 
Tannic acid | 3% | 15 |  | 
CC(CC(=O)CC(C)[C@H]1CC(=O)C2(C)C3=C(C(=O)C(=O)C12C)C1(C)CCC(=O)C(C)(C)[C@@H]1CC3=O)C(=O)O (stereo partly shown) [Ganosporeric acid A] | 36% | 9 |  | 
O=C(O)CO [Glycolic acid] | 5% | 6 |  | 
Cc1nc(N(C)C(=O)Cc2ccc(-c3ccccn3)cc2)sc1S(N)(=O)=O [BAY 57‐1293] | 36% | 0 |  | 
C[C@H]1O[C@@H](O[C@@H]2CC[C@@]3(C)[C@@H](CC[C@]4(C)[C@@H]3C=C[C@]35OC[C@@]6(CCC(C)(C)C[C@H]63)[C@@H](O)C[C@]54C)[C@@]2(C)CO)[C@H](O)[C@@H](O)[C@H]1O (stereo in doubt) [Prosaikogenin G] | 2% | 34 |  | 
O=C(O[C@H]1[C@H](Oc2c(-c3ccc(O)c(O)c3)oc3cc(O)cc(O)c3c2=O)O[C@H](CO)[C@H](O)[C@@H]1O)c1cc(O)c(O)c(O)c1 [2"‐O‐Galloylhyperin] | 32% | 1 |  | 
C[C@@]1(C(=O)O)CC[C@]2(C)CC[C@]3(C)C4=CC(=O)c5c(cc(O)c(O)c5C=O)[C@]4(C)CC[C@@]3(C)[C@@H]2C1 [Demethylzeylasteral] | 0% | 36 |  | 
CC1(C)CC[C@]2(C(=O)O[C@@H]3O[C@H](CO)[C@@H](O)[C@H](O)[C@H]3O)CC[C@]3(C)C(=CC[C@@H]4[C@@]5(C)CC[C@H](O[C@@H]6O[C@H](C(=O)O)[C@@H](O)[C@H](O[C@@H]7OC[C@@H](O)[C@H](O)[C@H]7O)[C@H]6O)C(C)(C)[C@@H]5CC[C@]43C)[C@@H]2C1 [Momordin IIc] | 0% | 0 |  | 
C[N+](C)(C)CCO.[Cl-] [Choline (chloride)] | 51% | 17 |  | 
CN(C)CCn1nnnc1SCC1=C(C(=O)O)N2C(=O)[C@@H](NC(=O)Cc3csc(N)n3)[C@H]2SC1.Cl.Cl [Cefotiam (hydrochloride)] | 66% | 37 |  | 
C[N+](C)(CCOc1ccccc1)Cc1ccccc1.O=C([O-])c1cc2ccccc2cc1O [Bephenium (hydroxynaphthoate)] | 12% | 5 |  | 
C=C(CC[C@@H](C)[C@H]1CC[C@@]2(C)[C@@H]3CC[C@H]4C(C)(C)[C@@H](OC(=O)/C=C/c5ccc(O)c(OC)c5)CC[C@@]45C[C@@]35CC[C@]12C)C(C)C [24-Methylenecycloartanyl ferulate] |  |  | 0 | 11
CC1=C[C@]23C(=O)[C@@H](C=C(COC(=O)c4ccccc4)[C@@H](O)[C@]2(O)[C@H]1OC(=O)c1ccccc1)[C@H]1[C@@H](C[C@H]3C)C1(C)C [Ingenol 3,20-dibenzoate] | 0% | 0 |  | 
Br.CN1[C@H]2C[C@H](OC(=O)[C@H](CO)c3ccccc3)C[C@@H]1[C@@H](O)C2 [Anisodamine (hydrobromide)] | 0% | 1 |  | 
CC(C)=CCC[C@](C)(O[C@@H]1O[C@H](CO[C@@H]2OC[C@@H](O)[C@H](O)[C@H]2O)[C@@H](O)[C@H](O)[C@H]1O)[C@H]1CC[C@]2(C)[C@@H]1[C@H](O)C[C@@H]1[C@@]3(C)CC[C@H](O[C@@H]4O[C@H](CO)[C@@H](O)[C@H](O)[C@H]4O[C@@H]4O[C@H](CO)[C@@H](O)[C@H](O)[C@H]4O[C@@H]4OC[C@@H](O)[C@H](O)[C@H]4O)C(C)(C)[C@@H]3CC[C@]12C [Notoginsenoside Fc] | 0% | 0 |  | 
CCOC1c2c(ccc3c2OCO3)-c2ccc3cc4c(cc3c2N1C)OCO4 (stereo not shown) [Ethoxysanguinarine] | 0% | 31 |  | 
COc1ccc(-c2cc(=O)c3c(O)cc(O[C@@H]4O[C@H](CO)[C@@H](O)[C@H](O)[C@H]4O[C@@H]4O[C@@H](C)[C@H](O)[C@@H](O)[C@H]4O)cc3o2)cc1O [Neodiosmin] | 14% | 6 |  | 

Compound | Percentage of motility inhibition 0 h [1] | Percentage of motility inhibition 24 h [2] [%] | Percentage of motility inhibition 0 h (110 µM) [%] | Percentage of motility inhibition 24 h (110 µM) [%]
C[C@@H]1O[C@@H](O[C@H]2[C@H](O[C@H]3[C@H](O[C@H]4CC[C@]5(C)[C@H]6CC=C7[C@@H]8CC(C)(C)CC[C@]8(C(=O)O[C@@H]8O[C@H](CO[C@@H]9O[C@H](CO)[C@@H](O[C@@H]%10O[C@@H](C)[C@H](O)[C@@H](O)[C@H]%10O)[C@H](O)[C@H]9O)[C@@H](O)[C@H](O)[C@H]8O)CC[C@@]7(C)[C@]6(C)CC[C@H]5C4(C)C)OC[C@H](O)[C@@H]3O)O[C@H](CO)[C@@H](O)[C@@H]2O)[C@H](O)[C@H](O)[C@H]1O [Raddeanoside R8] | 3% | 0 |  | 
COc1cc(/C=C/C(=O)O)ccc1O [Ferulic acid] | 58% | 8 |  | 
C/C=C1/[C@H](O[C@@H]2O[C@H](CO)[C@@H](O)[C@H](O)[C@H]2O)OC=C(C(=O)OC)[C@H]1CC(=O)OC[C@H]1O[C@@H](OCCc2ccc(OC(=O)C[C@@H]3C(C(=O)OC)=CO[C@@H](O[C@@H]4O[C@H](CO)[C@@H](O)[C@H](O)[C@H]4O)/C3=C/C)cc2)[C@H](O)[C@@H](O)[C@@H]1O [GL3] | 0% | 18 |  | 
CC(C)(C)NCc1cc(Nc2ccnc3cc(Cl)ccc23)c2c(c1O)CCCC2.O=P(O)(O)O.O=P(O)(O)O [Naphthoquine (phosphate)] | 28% | 8 |  | 
C=C1C2CC3(C1O)C1CC4C5(C)CCC(O)C4(C1N(CC)C5)C3CC2O (stereo not shown) [12‐Epinapelline] | 0% | 9 |  | 
CC1(C)CCC[C@]2(C)[C@H]3CC(=O)O[C@]3(C)CC[C@@H]12 [Sclareolide] | 1% | 25 |  | 
(±)‐Naringenin | 0% | 18 |  | 
CC1=C2[C@@H](OC1=O)[C@H](O)[C@]13[C@H]4C[C@@H](C(C)(C)C)[C@]15[C@@H](OC(=O)[C@@H]5O)O[C@@]23C(=O)O4 [Ginkgolide K] | 0% | 2 |  | 
O=C1Cc2cc(O)ccc2N1 [5‐Hydroxyoxindole] | 15% | 10 |  | 
CC[C@H]1CN2CC[C@H]1C[C@@H]2[C@@H](O)c1ccnc2ccc(OC)cc12 [Hydroquinidine] | 29% and 50% |  |  | 
C=C1C(=O)O[C@@H]2/C=C(/C)C(OC(C)=O)C/C=C(/C=O)CC(OC(=O)/C(C)=C/CO)[C@@H]12 (stereo partly shown) [Eupalinolide O] | 1% | 9 |  | 
COc1ccc(C[C@@H]2COc3c(C)c(O)c(C)c(O)c3C2=O)cc1 [Methylophiopogonanone B] | 0% | 21 |  | 
C[C@H](CC[C@@H](O[C@@H]1O[C@H](CO)[C@@H](O)[C@H](O)[C@H]1O[C@@H]1O[C@H](CO)[C@@H](O)[C@H](O)[C@H]1O)C(C)(C)O)[C@H]1CC[C@@]2(C)[C@@H]3CC=C4[C@@H](CC[C@H](O[C@@H]5O[C@H](CO)[C@@H](O)[C@H](O)[C@H]5O)C4(C)C)[C@]3(C)[C@H](O)C[C@]12C [Mogroside III-E] | 25% | 17 |  | 
Evocarpine | 8% | 20 |  | 
CO/N=C(\C(=O)N[C@@H]1C(=O)N2C(C(=O)[O-])=C(COC(N)=O)CS[C@H]12)c1ccco1.[Na+] [Cefuroxime (sodium)] | 19% | 17 |  | 
COc1cc(O)c2c(c1)O[C@H](c1cc(O)cc(O)c1)CC2=O [Blumeatin] | 21% | 11 |  | 
CCCCCCCC/C=C\CCCCCCCC(=O)[O-].[Na+] [Sodium oleate] | 0% | 0 |  | 
O=C(O)[C@H]1O[C@@H](Oc2cc(O)c3c(=O)cc(-c4ccc(O)c(O)c4)oc3c2)[C@H](O)[C@@H](O)[C@@H]1O [Luteolin 7‐O‐glucuronide] | 22% | 45 |  | 
C[C@@H]1CC[C@@H]2O[C@@]23C(=O)C(=O)[C@@H]2[C@@H](C2(C)C)[C@@]13C [Kanshone C] | 17% | 22 |  | 
O=C(CO)[C@@H](O)[C@H](O)[C@H](O)CO [D-Fructose] |  | 15 |  | 
COc1ccnc2[nH]cc(C(=O)C(=O)N3CCN(C(=O)c4ccccc4)C[C@H]3C)c12 [BMS‐378806] | 47% | 41 |  | 

Reference: paper PMC11855827, “High-Throughput Screening of Five Compound Libraries for Anthelmintic Activity and Toxicity Leads to the Discovery of Two Flavonoid Compounds” (International Journal of Molecular Sciences, 2025)
